Experimental data: US20240182465A1 (GENFLEET THERAPEUTICS (SHANGHAI) INC., priority 2021, published 2024)

Key:
HPK1 [1] = target: T1, HPK1 (Homo sapiens, UniProt Q92918); assay: HPK1 kinase activity assay (ADP-Glo); details: HPK1 Kinase activity IC50 (nM), 1 nM HPK1, 10 μM ATP, 0.1 μg/μL MBP
T1 sequence (Q92918 1-346 limits assumed): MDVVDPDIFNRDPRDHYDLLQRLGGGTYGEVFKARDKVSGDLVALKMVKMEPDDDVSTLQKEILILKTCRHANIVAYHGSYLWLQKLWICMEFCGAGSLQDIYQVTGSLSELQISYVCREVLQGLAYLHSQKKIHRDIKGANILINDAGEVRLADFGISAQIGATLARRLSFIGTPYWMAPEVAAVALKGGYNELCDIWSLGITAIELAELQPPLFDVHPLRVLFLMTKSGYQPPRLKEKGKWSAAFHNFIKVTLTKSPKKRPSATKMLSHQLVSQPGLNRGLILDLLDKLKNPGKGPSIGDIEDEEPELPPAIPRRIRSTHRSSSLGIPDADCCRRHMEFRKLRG
Protocol: Preparation of buffer: 1× reaction buffer (40 mM Tris-HCl, 20 mM MgCl2, 0.01% Brij35, 50 μM DTT, 0.1 mg/ml BSA) was prepared using sterile water, which was prepared and used on the day of the experiment.
Preparation of 1000× drug stock plate: a 1000× compound stock plate was prepared. […] The compound stock plate was sealed with a sealing film and stored in a −20° C. refrigerator for later use.
Compound preparation and dosing: the 1000× drug stock plate was taken and melted at room temperature in the dark. Then 5× drug intermediate plate was prepared using reaction buffer and mixed well. 2 μL was transferred from the 5× drug intermediate plate into a 384-well plate, and negative control well and positive control well (in which 2 μL reaction buffer containing 0.5% DMSO was added) were set. Each point was repeated twice.
Preparation and incubation of reaction mixture: HPK1 protein was diluted to a 2.5× working solution with reaction buffer. 4 μL 2.5×HPK1 protein was added to each well containing test compound and positive control well, and 4 μL of reaction buffer without HPK1 protein was added to the negative control well. The obtained mixture was centrifuged at 1000 rpm for 1 min and then incubated in a 20° C. incubator for 15 min. A 2.5× mixed working solution of MBP protein and ATP was prepared with reaction buffer at concentrations of 0.5 μg/μL and 50 PM, respectively. 4 μL of the mixed working solution of MBP and ATP was added to each well, centrifuged at 1000 rpm for 1 min, and then incubated in a 20° C. incubator for 90 min.
ADP-Glo detection and reading plate: 10 μl ADP-Glo was added to each well of the test plate. The resulting mixture was centrifuged at 1000 rpm for 1 min and incubated in a 20° C. incubator for 60 min. Then 10 μL of the final incubation solution was transferred from the test plate to a new 384-well plate. 10 μL of kinase detection reagent was added to each well, centrifuged at 400 g for 1 min, and incubated in a 20° C. incubator for 60 min. Chemiluminescent signals were read by a microplate reader.

HPK1 [2] = target: HPK1 (Homo sapiens, UniProt Q92918); assay: SLP76 phosphorylation assay (intracellular HPK1 inhibitory activity, p-SLP76 Ser376 sandwich ELISA); details: p-SLP76 IC50(nM), Jurkat, Clone E6-1 cells; 1 h compound pre-incubation, anti-CD3 beads stimulation 20 min; SLP76 phosphorylation at S376
Target sequence in this assay (Q92918 whole entry): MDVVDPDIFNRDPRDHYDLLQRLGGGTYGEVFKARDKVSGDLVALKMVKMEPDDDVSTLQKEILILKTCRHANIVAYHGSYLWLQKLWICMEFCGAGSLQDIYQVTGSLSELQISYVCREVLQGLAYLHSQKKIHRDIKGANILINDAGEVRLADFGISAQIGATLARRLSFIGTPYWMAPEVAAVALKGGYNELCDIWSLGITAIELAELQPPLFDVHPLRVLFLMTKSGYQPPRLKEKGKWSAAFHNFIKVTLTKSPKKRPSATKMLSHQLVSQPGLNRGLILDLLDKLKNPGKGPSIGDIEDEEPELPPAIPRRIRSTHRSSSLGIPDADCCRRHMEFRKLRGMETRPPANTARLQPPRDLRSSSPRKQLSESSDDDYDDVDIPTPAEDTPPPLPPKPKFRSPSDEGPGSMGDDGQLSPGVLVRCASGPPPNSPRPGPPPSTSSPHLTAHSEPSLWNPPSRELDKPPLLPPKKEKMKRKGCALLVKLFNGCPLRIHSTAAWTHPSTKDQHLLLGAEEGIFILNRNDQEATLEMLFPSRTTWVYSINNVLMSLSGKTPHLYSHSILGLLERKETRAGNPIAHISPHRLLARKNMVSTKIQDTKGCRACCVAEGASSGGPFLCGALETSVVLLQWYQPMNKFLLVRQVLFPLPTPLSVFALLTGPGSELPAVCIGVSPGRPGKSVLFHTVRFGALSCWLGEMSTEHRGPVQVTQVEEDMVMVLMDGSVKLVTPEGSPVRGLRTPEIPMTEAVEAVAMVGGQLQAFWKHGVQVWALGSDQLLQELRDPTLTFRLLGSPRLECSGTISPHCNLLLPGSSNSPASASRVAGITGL

SMILES | IC50 (HPK1 [1]) [nM] | IC50 (HPK1 [2]) [nM]
Cc1c[nH]c2ncc(-c3cc4c(c([C@@H]5CCCN5)c3)CN(C(=O)N3CC5CCC(C3)O5)CC4)cc12 [Compound Z389, (8-oxa-3-azabicyclo[3.2.1]octan-3-yl)(6-(3-methyl-1H-pyrrolo[2,3-b]pyridin-5-yl)-8-((S)-pyrrolidin-2-yl)-3,4-dihydroisoquinolin-2(1H)-yl)methanone] | 0.21 | 47.1
Cc1c[nH]c2ncc(-c3cc4c(c(C5CCN5)c3)COCC4)cc12 (centres unmarked) [Compound Z232, 5-(8-(azetidin-2-yl)isochroman-6-yl)-3-methyl-1H-pyrrolo[2,3-b]pyridine] | 20.5 | 1660
Cc1c[nH]c2ncc(-c3cc4c(c([C@@H]5CCCN5)c3)CN(C(=O)N3CCOC[C@H]3C)CC4)cc12 [Compound Z358-2, (6-(3-methyl-1H-pyrrolo[2,3-b]pyridin-5-yl)-8-((S)-pyrrolidin-2-yl)-3,4-dihydroisoquinolin-2(1H)-yl) ((R)-3-methylmorpholin)methanone] | 0.23 | 53.2
Cc1c[nH]c2ncc(-c3cc4c(c([C@@H]5CCCN5)c3)COC3(CC3)C4)cc12 [Compound Z229, (S)-3-methyl-5-(8′-(pyrrolidin-2-yl)spiro[cyclopropane-1,3′-isochroman]-6′-yl)-1H-pyrrolo[2,3-b]pyridine] | 0.46 | 276
CC(C)c1c[nH]c2ncc(-c3cc(C4CCCN4)c4cnccc4c3)cc12 (centres unmarked) [Compound Z95, 6-(3-isopropyl-1H-pyrrolo[2,3-b]pyridin-5-yl)-8-(pyrrolidin-2-yl)isoquinoline] | 3.11 | 1080
Cc1c[nH]c2ncc(-c3cc4c(c(CN5CC6CCC(C5)N6C)c3)COCC4)cc12 [Compound Z113, 3-methyl-5-(8-((8-methyl-3,8-diazabicyclo[3.2.1]octan-3-yl)methyl)isochroman-6-yl)-1H-pyrrolo[2,3-b]pyridine] | 62.2 | 10000
Cc1c[nH]c2ncc(-c3cc4c(c([C@@H]5CCCN5)c3)CN(C(=O)c3cnn(C5CC5)c3)CC4)cc12 [Compound Z319, (S)-(1-cyclopropyl-1H-pyrazol-4-yl)(6-(3-methyl-1H-pyrrolo[2,3-b]pyridin-5-yl)-8-(pyrrolidin-2-yl)-3,4-dihydroisoquinolin-2(1H)-yl)methanone] | 0.28 | 111
Cc1c[nH]c2ncc(-c3cc4c(c([C@@H]5CCCN5)c3)CN(C(=O)NC3CC3)CC4)cc12 [Compound Z250, (S)—N-cyclopropyl-6-(3-methyl-1H-pyrrolo[2,3-b]pyridin-5-yl)-8-(pyrrolidin-2-yl)-3,4-dihydroisoquinoline-2(1H)-carboxamide] | 0.42 | 193
Cc1ccc(C(=O)N2CCc3cc(-c4cnc5[nH]cc(C)c5c4)cc([C@@H]4CCCN4)c3C2)cn1 [Compound Z441, (S)-(6-(3-methyl-1H-pyrrolo[2,3-b]pyridin-5-yl)-8-(pyrrolidin-2-yl)-3,4-dihydroisoquinolin-2(1H)-yl) (6-methylpyridin-3-yl)methanone] | 0.52 | 197
CC(=O)N1CCc2cc(-c3cnc4[nH]cc(C)c4c3)cc(C3COCCN3)c2C1 (centres unmarked) [Compound Z119] | 1.54 | 358
Cc1c[nH]c2ncc(-c3cc4c(c([C@@H]5COCCN5)c3)CN(S(C)(=O)=O)CC4)cc12 [Compound Z316, 2-(methyldioxo-λ6-sulfanyl)-6-(3-methyl-1H-pyrrolo[2,3-b]pyridin-5-yl)-8-[(3R)-1,4-oxazecyclohex-3-yl]-1,2,3,4-tetrahydroisoquinoline] | 0.74 | 314
Cc1cc(C(=O)N2CCc3cc(-c4cnc5[nH]cc(C)c5c4)cc([C@@H]4CCCN4)c3C2)cc(C)n1 [Compound Z214, (S)-(6-(3-methyl-1H-pyrrolo[2,3-b]pyridin-5-yl)-8-(pyrrolidin-2-yl)-3,4-dihydroisoquinolin-2(1H)-yl) (2,6-dimethylpyridin-4-yl)methanone] | 1.04 | 181
Cc1c[nH]c2ncc(-c3cc4c(c([C@@H]5CCCN5)c3)CCN(CC(F)(F)F)C4)cc12 [Compound Z308, (S)-7-(3-methyl-1H-pyrrolo[2,3-b]pyridin-5-yl)-5-(pyrrolidin-2-yl)-2-(2,2,2-trifluoroethyl)-1,2,3,4-tetrahydroisoquinoline] | 2.06 | 441
Cc1c[nH]c2ncc(-c3cc4c(c([C@@H]5CCCN5)c3)CN(C(=O)N3CCOC(C)(C)C3)CC4)cc12 [Compound Z362, (S)-(2,2-dimethylmorpholine)(6-(3-methyl-1H-pyrrolo[2,3-b]pyridin-5-yl)-8-(pyrrolidin-2-yl)-3,4-dihydroisoquinolin-2(1H)-yl)methanone] | 0.22 | 92.9
CN1CCc2cc(-c3cnc(N)c(-c4cnn(C)c4)c3)cc(C3CCCN3)c2C1 (centres unmarked) [Compound Z4, 3-(1-methyl-1H-pyrazol-4-yl)-5-(2-methyl-8-(pyrrolidin-2-yl)-1,2,3,4-tetrahydroisoquinolin-6-yl)pyridin-2-amine] | 48.7 | 3570
Cc1c[nH]c2ncc(-c3cc4c(c([C@@H]5CCCN5)c3)CCN(C(=O)C3CC3)C4)cc12 [Compound Z302, (S)-cyclopropyl (7-(3-methyl-1H-pyrrolo[2,3-b]pyridin-5-yl)-5-(pyrrolidin-2-yl)-3,4-dihydroisoquinolin-2(1H)-yl)methanone] | 0.93 | 125
C[C@H](C#N)c1c[nH]c2ncc(-c3cc4c(c([C@@H]5CCCN5)c3)COCC4)cc12 (single isomer, unassigned) [Compound Z104-1] | 0.62 | 126
COc1cc(C(=O)N2CCc3cc(-c4cnc5[nH]cc(C)c5c4)cc([C@@H]4CCCN4)c3C2)ccn1 [Compound Z215, (S)-(6-(3-methyl-1H-pyrrolo[2,3-b]pyridin-5-yl)-8-(pyrrolidin-2-yl)-3,4-dihydroisoquinolin-2(1H)-yl) (2-methoxypyridin-4-yl)methanone] | 0.51 | 444
Cc1ncc(C(=O)N2CCc3cc(-c4cnc5[nH]cc(C)c5c4)cc([C@@H]4CCCN4)c3C2)c(C(F)(F)F)n1 [Compound Z349, (S)-(6-(3-methyl-1H-pyrrolo[2,3-b]pyridin-5-yl)-8-(pyrrolidin-2-yl)-3,4-dihydroisoquinolin-2(1H)-yl) (2-methyl-4-(trifluoromethyl)pyrimidin-5-yl)methanone] | 0.47 | 240
Cc1c[nH]c2ncc(-c3cc4c(c([C@@H]5CCCN5)c3)CN(C(=O)c3cn(C)nc3C(F)(F)F)CC4)cc12 [Compound Z337, [6-(3-methyl-1H-pyrrolo[2,3-b]pyridin-5-yl)-8-[(2S)-pyrrolidin-2-yl]-3,4-dihydro-1H-isoquinolin-2-yl]-[l-methyl-3-(trifluoromethyl)pyrazol-4-yl]methanone] | 1.57 | 359
Cc1c[nH]c2ncc(-c3cc4c(c([C@@H]5CCCN5)c3)CN(C(=O)N3CCO[C@H](C)C3)CC4)cc12 [Compound Z359-2, (6-(3-methyl-1H-pyrrolo[2,3-b]pyridin-5-yl)-8-((S)-pyrrolidin-2-yl)-3,4-dihydroisoquinolin-2(1H)-yl) ((R)-2-methylmorpholin)methanone] | 0.36 | 98.1
CCN1Cc2c(cc(-c3cnc4[nH]cc(C)c4c3)cc2[C@@H]2CCCN2)NC1=O [Compound Z256, (S)-3-ethyl-7-(3-methyl-1H-pyrrolo[2,3-b]pyridin-5-yl)-5-(pyrrolidin-2-yl)-3,4-dihydroquinazolin-2(1H)-one] | 0.8 | 279
Cc1c[nH]c2ncc(-c3cc4c(c(CN(C)C)c3)C(=O)N(C)CC4)cc12 [Compound Z186, 8-((dimethylamino)methyl)-2-methyl-6-(3-methyl-1H-pyrrolo[2,3-b]pyridin-5-yl)-3,4-dihydroisoquinolin-1(2H)-one] | 34.2 | 3760
Cc1c[nH]c2ncc(-c3cc4c(c(CNC(C)C)c3)COCC4)cc12 [Compound Z111, N-((6-(3-methyl-1H-pyrrolo[2,3-b]pyridin-5-yl)isochroman-8-yl)methyl)propan-2-amine] | 5.81 | 815
N#Cc1c[nH]c2ncc(-c3cc4c(c([C@@H]5CCCN5)c3)COCC4)cc12 [Compound Z190, (S)-5-(8-(pyrrolidin-2-yl)isochroman-6-yl)-1H-pyrrolo[2,3-b]pyridine-3-carbonitrile] | 1.89 | 494
Cc1c[nH]c2ncc(-c3cc4c(c(CN(C)C)c3)COCC4)cc12 [Compound Z103, N,N-dimethyl-1-(6-(3-methyl-1H-pyrrolo[2,3-b]pyridin-5-yl)isochroman-8-yl)methanamine] | 2.65 | 545
Cc1c[nH]c2ncc(-c3cc4c(c([C@@H]5CCCN5)c3)CCOC4)cc12 [Compound Z75-1] | 1.7 | 475
Cc1ncc(C(=O)N2CCc3cc(-c4cnc5[nH]cc(C)c5c4)cc([C@@H]4CCCN4)c3C2)cn1 [Compound Z328, (S)-[6-(3-methyl-1H-pyrrolo[2,3-b]pyridin-5-yl)-8-[pyrrolidin-2-yl]-3,4-dihydroisoquinolin-2(1H)-yl](2-methylpyrimidin-5-yl)methanone] | 0.33 | 90.7
